Laboratory results taken from patent US20250352550A1, “SUBSTITUTED FUROPYRIDINES FOR THERAPEUTIC USE” (MASARYKOVA UNIVERZITA, priority 2022, published 2025).

What was measured:
FLT3 = biological target: T1, FLT3 (Homo sapiens, UniProt P36888); assay: HotSpot radiometric kinase assay (Reaction Biology), FLT3; type: biochemical; conditions: 4 nM kinase, substrate ABLtide 20 μM, 33P-ATP, 120 minutes at room temperature
T1 construct: purchased Reaction Biology
T1 sequence (P36888 27-993): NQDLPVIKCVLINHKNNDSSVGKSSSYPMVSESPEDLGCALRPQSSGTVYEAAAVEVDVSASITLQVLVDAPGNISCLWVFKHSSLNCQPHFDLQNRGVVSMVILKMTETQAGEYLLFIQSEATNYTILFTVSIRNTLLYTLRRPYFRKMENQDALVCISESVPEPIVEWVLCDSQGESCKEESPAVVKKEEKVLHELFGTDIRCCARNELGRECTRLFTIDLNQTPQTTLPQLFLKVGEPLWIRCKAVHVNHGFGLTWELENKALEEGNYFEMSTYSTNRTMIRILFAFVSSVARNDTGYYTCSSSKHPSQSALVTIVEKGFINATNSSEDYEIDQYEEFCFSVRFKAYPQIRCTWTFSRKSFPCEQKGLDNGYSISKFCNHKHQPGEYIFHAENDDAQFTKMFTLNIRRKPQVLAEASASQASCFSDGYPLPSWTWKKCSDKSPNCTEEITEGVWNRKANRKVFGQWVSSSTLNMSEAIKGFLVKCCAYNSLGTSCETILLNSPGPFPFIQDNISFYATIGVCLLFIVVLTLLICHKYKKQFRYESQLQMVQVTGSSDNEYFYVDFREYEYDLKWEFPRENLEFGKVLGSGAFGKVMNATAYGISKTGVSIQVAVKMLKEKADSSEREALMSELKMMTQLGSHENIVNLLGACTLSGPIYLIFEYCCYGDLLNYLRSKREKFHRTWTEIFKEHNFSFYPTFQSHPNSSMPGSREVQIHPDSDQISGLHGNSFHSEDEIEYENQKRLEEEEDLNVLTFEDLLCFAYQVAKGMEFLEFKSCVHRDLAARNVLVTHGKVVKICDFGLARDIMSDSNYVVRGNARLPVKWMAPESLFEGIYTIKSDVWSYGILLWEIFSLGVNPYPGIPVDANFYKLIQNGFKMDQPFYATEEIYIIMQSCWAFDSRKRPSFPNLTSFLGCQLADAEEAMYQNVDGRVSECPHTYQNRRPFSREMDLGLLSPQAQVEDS
Method: (§1) The compounds were profiled in the HotSpot radiometric assays (Reaction Biology).
(§2) Briefly, • 1. Substrate indicated in Table 1 was dissolved in freshly prepared reaction buffer (20 mM HEPES (pH 7.5), 10 mM MgCl2, 1 mM EGTA, 0.01% Brij35, 0.02 mg/ml BSA, 0.1 mM Na3VO4, 2 mM DTT, 1% DMSO) at the concentration indicated in Table 1. • 2. Corresponding kinase (concentration indicated in Table 1) was added and the mixture was gently mixed. • 3. Tested compound dissolved in DMSO was added into the kinase reaction mixture. • 4. ^33P-ATP (specific activity 0.01 μCi/μL final) was added into the reaction mixture to initiate the reaction. • 5. The kinase reaction was incubated for 120 minutes at room temperature. • 6. Reaction mixture was spotted onto P81 ion exchange paper (Whatman K 3698-915). • 7. The filters were extensively washed with 0.754 phosphoric acid. • 7. The radioactive phosphorylated substrate remaining on the filter paper was measured.
(§3) Kinase activity data were expressed as the percent remaining kinase activity in tested samples compared to the vehicle (DMSO) reactions. IC50 values and curve fits were obtained using Prism4 Software (GraphPad).
Table 2 summarizes the inhibitory activities of indicated compounds tested in the in vitro kinase assays described above.

DDR1 = biological target: T2, DDR1 (Homo sapiens, UniProt Q08345); assay: HotSpot radiometric kinase assay (Reaction Biology), DDR1; type: biochemical; conditions: 200 nM kinase, substrate IRS1tide 20 μM, 33P-ATP, 120 minutes at room temperature
T2 construct: purchased Reaction Biology
Method: as §1
as §2, with “Reaction mixture was spotted onto P81 ion exchange paper (Whatman K 3698-915). • 7. The filters were extensively washed with 0.754 phosphoric acid. • 7.” left out
as §3

T2 sequence (Q08345 19-913): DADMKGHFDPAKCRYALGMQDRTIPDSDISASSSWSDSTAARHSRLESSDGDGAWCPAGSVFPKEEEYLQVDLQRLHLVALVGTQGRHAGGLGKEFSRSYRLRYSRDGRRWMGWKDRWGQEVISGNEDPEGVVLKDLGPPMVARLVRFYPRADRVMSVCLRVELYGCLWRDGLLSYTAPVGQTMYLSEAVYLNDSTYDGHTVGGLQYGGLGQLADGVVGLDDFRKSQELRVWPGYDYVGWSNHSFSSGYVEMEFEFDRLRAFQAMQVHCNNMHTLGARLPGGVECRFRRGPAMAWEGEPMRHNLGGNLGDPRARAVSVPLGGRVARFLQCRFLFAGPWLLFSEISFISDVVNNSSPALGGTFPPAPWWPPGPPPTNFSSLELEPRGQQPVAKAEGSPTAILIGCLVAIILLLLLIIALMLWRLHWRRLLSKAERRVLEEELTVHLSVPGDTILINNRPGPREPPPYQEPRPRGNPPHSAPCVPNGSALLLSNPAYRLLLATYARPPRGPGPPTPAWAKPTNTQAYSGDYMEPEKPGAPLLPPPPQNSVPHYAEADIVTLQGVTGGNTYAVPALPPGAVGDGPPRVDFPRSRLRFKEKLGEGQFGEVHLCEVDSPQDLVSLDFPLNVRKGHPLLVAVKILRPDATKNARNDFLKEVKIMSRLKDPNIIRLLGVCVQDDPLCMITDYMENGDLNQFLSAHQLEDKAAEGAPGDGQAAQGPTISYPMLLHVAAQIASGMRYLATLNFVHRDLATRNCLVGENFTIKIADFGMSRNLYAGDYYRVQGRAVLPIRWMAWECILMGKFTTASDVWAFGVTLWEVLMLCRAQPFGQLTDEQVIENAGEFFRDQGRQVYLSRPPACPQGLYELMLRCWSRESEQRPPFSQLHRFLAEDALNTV

IC50 (FLT3) [nM] | IC50 (DDR1) [nM] | Compound
90 | 160 | N#Cc1cccc(-c2coc3cc(-c4ccc(N5CCNCC5)cc4)cnc23)c1 [Preparative Example 20, 3-(6-(4-(piperazin-1-yl)phenyl)furo[3,2-b]pyridin-3-yl)benzonitrile]
649 | 869 | FC(F)(F)Oc1cccc(-c2coc3cc(-c4ccc(N5CCNCC5)cc4)cnc23)c1 [Preparative Example 113, 6-(4-(piperazin-1-yl)phenyl)-3-(3-(trifluoromethoxy)phenyl)furo[3,2-b]pyridine]
21 | 365 | c1cc(-c2coc3cc(-c4ccc(OCCN5CCCCC5)cc4)cnc23)ccn1 [Preparative Example 171, 6-(4-(2-(piperidin-1-yl)ethoxy)phenyl)-3-(pyridin-4-yl)furo[3,2-b]pyridine]
21 | 198 | CS(=O)(=O)NCc1cccc(-c2coc3cc(-c4ccc(N5CCNCC5)cc4)cnc23)c1 [Preparative Example 125, N-(3-(6-(4-(piperazin-1-yl)phenyl)furo[3,2-b]pyridin-3-yl)benzyl)methanesulfonamide]
22 | 157 | CN1CCN(c2ccc(-c3cnc4c(-c5cccc(CC(N)=O)c5)coc4c3)cc2)CC1 [Preparative Example 154, 2-(3-(6-(4-(4-methylpiperazin-1-yl)phenyl)furo[3,2-b]pyridin-3-yl)phenyl)acetamide]
121 | 252 | c1ccc(Oc2cccc(-c3coc4cc(-c5ccc(N6CCNCC6)cc5)cnc34)c2)cc1 [Preparative Example 104, 3-(3-phenoxyphenyl)-6-(4-(piperazin-1-yl)phenyl)furo[3,2-b]pyridine]
362 | 79 | CCCc1oc2cc(-c3ccc(N4CCN(C)CC4)cc3)cnc2c1-c1ccccc1 [Preparative Example 200, 1-methyl-4-(4-{3-phenyl-2-propylfuro[3,2-b]pyridin-6-yl}phenyl)piperazine]
66 | 486 | COC(=O)c1cccc(-c2coc3cc(-c4ccc(N5CCN(C)CC5)cc4)cnc23)c1 [Preparative Example 237, methyl 3-{6-[4-(4-methylpiperazin-1-yl)phenyl]furo[3,2-b]pyridin-3-yl}benzoate]
25 | 294 | c1cncc(-c2coc3cc(-c4ccc(N5CCNCC5)cc4)cnc23)c1 [Preparative Example 11, 6-(4-(piperazin-1-yl)phenyl)-3-(pyridin-3-yl)furo[3,2-b]pyridine]
101 | 213 | CN1CCN(c2ccc(-c3cnc4c(-n5ccnc5)coc4c3)cc2)CC1 [Preparative Example 231, 1-{4-[3-(1H-imidazol-1-yl)furo[3,2-b]pyridin-6-yl]phenyl}-4-methylpiperazine]
578 | 586 | CC(C)(C)Sc1cccc(-c2coc3cc(-c4ccc(N5CCNCC5)cc4)cnc23)c1 [Preparative Example 46, 3-(3-(tert-butylthio)phenyl)-6-(4-(piperazin-1-yl)phenyl)furo[3,2-b]pyridine]
269 | 472 | CN1CCN(c2ccc(-c3cnc4c(-c5cccc(C(=O)c6ccccc6)c5)coc4c3)cc2)CC1 [Preparative Example 133, (3-(6-(4-(4-methylpiperazin-1-yl)phenyl)furo[3,2-b]pyridin-3-yl)phenyl)(phenyl)methanone]
805 | 763 | CCNS(=O)(=O)Cc1cccc(-c2coc3cc(-c4ccc(N5CCN(C)CC5)cc4)cnc23)c1 [Preparative Example 141, N-ethyl-1-(3-(6-(4-(4-methylpiperazin-1-yl)phenyl)furo[3,2-b]pyridin-3-yl)phenyl)methanesulfonamide]
37 | 305 | CCCCOC(=O)c1cccc(-c2coc3cc(-c4ccc(N5CCNCC5)cc4)cnc23)c1 [Preparative Example 167, butyl 3-(6-(4-(piperazin-1-yl)phenyl)furo[3,2-b]pyridin-3-yl)benzoate]
